Test results as given in the supplement of paper PMC11061612.

Key:
[1] = compound: CN(C)CCCOc1ccc(-c2ccc3ncc4c(c3c2)n(C2CCOCC2)c(=O)n4C)cn1 [AZD0156]
How it was run: (§1)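 Cancer cell lines were dosed for 72 hours (final DMSO typically 0.2%) after 24 hours at 37°C and 5% CO2 in 1536-well plates containing 7.5 μl DMEM/F12 or RPMI with 10% FBS. Viability came from CellTiter-Glo 2.0 luminescence, scaled between blank-well and DMSO-well means, and dose responses were fitted to a two-parameter logistic curve with a non-linear mixed effects model. The single-agent IC50 was obtained from this fit.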

[2] = compound: C1CN(CCC1(C(=O)N[C@@H](CCO)C2=CC=C(C=C2)Cl)N)C3=NC=NC4=C3C=CN4 [Capivasertib]
How it was run: as §1

[3] = compound: C=CCn1c(=O)c2cnc(Nc3ccc(N4CCN(C)CC4)cc3)nc2n1-c1cccc(C(C)(C)O)n1 [AZD1775]
How it was run: as §1

[4] = compound: O=C(c1cc(Cc2n[nH]c(=O)c3ccccc23)ccc1F)N1CCN(C(=O)C2CC2)CC1 [Olaparib]
How it was run: as §1

[5] = compound: CS(=O)(=O)CCNCc1ccc(-c2ccc3ncnc(Nc4ccc(OCc5cccc(F)c5)c(Cl)c4)c3c2)o1 [Lapatinib]; conditions: max 10 µM
How it was run: as §1

[6] = compound: C[C@@H](c1ccc2nccn2c1)n1nnc2ncc(-c3cnn(C)c3)nc21 [Savolitinib]; conditions: max 1 µM
How it was run: as §1

[7] = compound: CC1=CN2[C@@H](C1)C=NC3=CC(=C(C=C3C2=O)OC)OCCCCCOC4=C(C=C5C(=C4)N=C[C@@H]6CC(=CN6C5=O)C)OC [SG3199]; conditions: max 0.001 µM
How it was run: as §1

[8] = compound: C[C@@H](Oc1cc(-c2cnn(C3CCNCC3)c2)cnc1N)c1c(Cl)ccc(F)c1Cl [Crizotinib]; conditions: max 10 µM
How it was run: as §1

[9] = compound: CC(=O)c1c(C)c2cnc(Nc3ccc(N4CCNCC4)cn3)nc2n(C2CCCC2)c1=O [Palbociclib]; conditions: max 10 µM
How it was run: as §1

[10] = compound: COc1cccc(OCCCN)c1-c1cc(Nc2cnc(C#N)cn2)n[nH]1 [Prexasertib]; conditions: max 1 µM
How it was run: as §1

[11] = compound: Cc1nc(-c2cn3c(n2)-c2ccc(-c4cnn(C(C)(C)C(N)=O)c4)cc2OCC3)n(C(C)C)n1 [Taselisib]; conditions: max 10 µM
How it was run: as §1

[12] = compound: Cc1c2c(nn1C)CSCc1cc(n(C)n1)CSc1cc(c3ccccc3c1)OCCCc1c(C(=O)O)n(C)c3c-2c(Cl)ccc13 [AZD5991]; conditions: max 1 µM
How it was run: as §1

[13] = compound: C[C@@H](Nc1cc(F)cc(F)c1)c1cc(C(=O)N(C)C)cc2c(=O)cc(N3CCOCC3)oc12 [AZD8186]; conditions: max 3 µM
How it was run: as §1

[14] = compound: CC(=O)Nc1cccc(-n2c(=O)n(C3CC3)c(=O)c3c(Nc4ccc(I)cc4F)n(C)c(=O)c(C)c32)c1 [Trametinib]; conditions: max 1 µM
How it was run: as §1

[15] = compound: CCN(CCO)CCCOc1ccc2c(Nc3cc(CC(=O)Nc4cccc(F)c4)[nH]n3)ncnc2c1 [AZD2811]; conditions: max 1 µM
How it was run: as §1

[16] = compound: CC1(C)CCC(CN2CCN(c3ccc(C(=O)NS(=O)(=O)c4ccc(NCC5CCOCC5)c([N+](=O)[O-])c4)c(Oc4cnc5[nH]ccc5c4)c3)CC2)=C(c2ccc(Cl)cc2)C1 [Venetoclax]; conditions: max 1 µM
How it was run: as §1

[17] = compound: COc1cccc2c1C(=O)c1c(O)c3c(c(O)c1C2=O)C[C@@](O)(C(=O)CO)C[C@@H]3O[C@H]1C[C@H](N)[C@H](O)[C@H](C)O1 [Doxorubicin]; conditions: max 1 µM
How it was run: as §1

[18] = compound: Cn1cnc2c(F)c(Nc3ccc(Br)cc3Cl)c(C(=O)NOCCO)cc21 [Selumetinib]; conditions: max 10 µM
How it was run: as §1

[19] = compound: COc1cc2ncnc(Nc3ccc(F)c(Cl)c3)c2cc1OCCCN1CCOCC1 [Gefitinib]; conditions: max 10 µM
How it was run: as §1

[20] = compound: Cc1cc2ncnn2cc1Nc1ncc2c(n1)n(C1CCOCC1)c(=O)n2C [AZD7648]; conditions: max 10 µM
How it was run: as §1

[21] = compound: COc1nnc2ccc(N3CCC(c4ccc(OCCN5CCN(C)C(=O)[C@H]5C)cc4)CC3)nn12 [AZD5153]; conditions: max 1 µM
How it was run: as §1

[22] = compound: CN(CC[C@H](CSC1=CC=CC=C1)NC2=C(C=C(C=C2)S(=O)(=O)NC(=O)C3=CC=C(C=C3)N4CCC(CC4)[C@H](C5=CC=CC=C5C6=CC=C(C=C6)Cl)O)S(=O)(=O)C(F)(F)F)CCO [AZD4320]; conditions: max 1 µM
How it was run: as §1

[23] = compound: COc1cc(Nc2ncc3c(n2)-c2ccc(Cl)cc2C(c2c(F)cccc2OC)=NC3)ccc1C(=O)O [Alisertib]; conditions: max 10 µM
How it was run: as §1

[24] = compound: CCc1c2c(nc3ccc(O)cc13)-c1cc3c(c(=O)n1C2)COC(=O)[C@]3(O)CC [SN-38]; conditions: max 0.3 µM
How it was run: as §1

[25] = compound: C[C@@H]1COCCN1C2=NC(=NC(=C2)C3(CC3)[S@](=N)(=O)C)C4=C5C=CNC5=NC=C4 [AZD6738]; conditions: max 10 µM
How it was run: as §1

[26] = compound: CC1=C(C(=CC=C1)Cl)NC(=O)C2=CN=C(S2)NC3=CC(=NC(=N3)C)N4CCN(CC4)CCO [Dasatinib]; conditions: max 2 µM
How it was run: as §1

[27] = compound: CC(C)n1c(=O)n(C)c2cnc3cc(F)c(-c4ccc(OCCCN5CCCCC5)nc4)cc3c21 [AZD1390]; conditions: max 0.3 µM
How it was run: as §1

| Cell Line | IC50, cell viability 72 h ([1]; max 3 µM) [µM] | IC50, cell viability 72 h ([2]; max 3 µM) [µM] | IC50, cell viability 72 h ([3]; max 3 µM) [µM] | IC50, cell viability 72 h ([4]; max 3 µM) [µM] | IC50, cell viability 72 h [5] [µM] | IC50, cell viability 72 h [6] [µM] | IC50, cell viability 72 h [7] [µM] | IC50, cell viability 72 h [8] [µM] | IC50, cell viability 72 h [9] [µM] | IC50, cell viability 72 h [10] [µM] | IC50, cell viability 72 h ([2]; max 10 µM) [µM] | IC50, cell viability 72 h [11] [µM] | IC50, cell viability 72 h [12] [µM] | IC50, cell viability 72 h [13] [µM] | IC50, cell viability 72 h [14] [µM] | IC50, cell viability 72 h [15] [µM] | IC50, cell viability 72 h [16] [µM] | IC50, cell viability 72 h [17] [µM] | IC50, cell viability 72 h [18] [µM] | IC50, cell viability 72 h [19] [µM] | IC50, cell viability 72 h [20] [µM] | IC50, cell viability 72 h [21] [µM] | IC50, cell viability 72 h [22] [µM] | IC50, cell viability 72 h [23] [µM] | IC50, cell viability 72 h [24] [µM] | IC50, cell viability 72 h [25] [µM] | IC50, cell viability 72 h [26] [µM] | IC50, cell viability 72 h [27] [µM] | IC50, cell viability 72 h ([4]; max 10 µM) [µM] | IC50, cell viability 72 h ([1]; max 1 µM) [µM] | IC50, cell viability 72 h ([3]; max 1 µM) [µM] |
| --- | --- | --- | --- | --- | --- | --- | --- | --- | --- | --- | --- | --- | --- | --- | --- | --- | --- | --- | --- | --- | --- | --- | --- | --- | --- | --- | --- | --- | --- | --- | --- |
| CHP-134 (Neuroblastoma) | > 3 | > 3 | 0.646 | > 3 | – | – | – | – | – | – | – | – | – | – | – | – | – | – | – | – | – | – | – | – | – | – | – | – | – | – | – |
| Detroit562 (Head and Neck Carcinoma) | > 3 | – | 0.43 | – | 2.02 | > 1 | > 0.001 | 1.68 | > 10 | 0.0295 | 6.95 | 0.355 | > 1 | > 3 | > 1 | 0.188 | > 1 | > 1 | > 10 | > 10 | > 10 | 0.0652 | > 1 | 0.76 | 0.022 | 2.15 | 0.115 | > 0.3 | > 10 | – | – |
| FTC-133 (Thyroid Gland Carcinoma) | – | – | – | – | > 10 | > 1 | > 0.001 | > 10 | > 10 | 0.0292 | 8.76 | > 10 | 0.999 | > 3 | > 1 | > 1 | > 1 | 0.352 | > 10 | > 10 | > 10 | 0.657 | > 1 | 8.36 | 0.00651 | 4.69 | > 2 | > 0.3 | > 10 | > 1 | 0.968 |
| HeLa (Cervical Carcinoma) | > 3 | – | 0.893 | – | > 10 | > 1 | > 0.001 | > 10 | > 10 | 0.105 | > 10 | > 10 | > 1 | > 3 | > 1 | > 1 | > 1 | > 1 | > 10 | > 10 | > 10 | > 1 | > 1 | > 10 | > 0.3 | > 10 | > 2 | > 0.3 | > 10 | – | – |
| Hs-746T (Gastric Carcinoma) | > 3 | – | 1.44 | – | > 10 | 0.0409 | > 0.001 | 0.683 | > 10 | 0.0664 | > 10 | > 10 | > 1 | > 3 | 0.254 | > 1 | > 1 | > 1 | > 10 | > 10 | > 10 | 0.833 | > 1 | > 10 | > 0.3 | 9.89 | > 2 | > 0.3 | > 10 | – | – |
